Laboratory results: US20050106213A1, “Resorption-controlled bone implants” (priority 2001, published 2005)

Columns and labels:
[1] = Solubility of Bafilomycin A1 in solvent for liquid phase preparation; format: physicochemical; conditions: at 2.0×10^−3 M
From the text: (§1) Bafilomycin A1 was first dissolved in DMSO solution (other solutions that can be used are methanol and ethanol), and then dispersed in a neutral phosphate solution (pH 7.4) prepared from Na2HPO4 and NaH2PO4.

[2] = tested on: osteoclasts; assay: CAP cement rods or pastes doped with Bafilomycin A1 implanted in rat femur defects, histology; format: in vivo
From the text: The calcium phosphate precursor powder consisted of an equimolar mixture of DCPA and TTCP sterilized by gamma irradiation (20 kGy). Deionized double distilled water was obtained from a Millipore Milli-RO 10 Plus and Mill-Q UF Plus systems (Bedford, Mass., USA) operated at 18 MΩ resistance. The liquid phase was a neutral sodium hydrogen phosphate solution at pH 7.4, which was sterilized by filtration through 0.22 μm filters (Millipore Corp., Bedford, Mass., USA).
as §1
After Bafilomycin A1 was dispersed in the biphasic liquid phase, the liquid phase was added to one of the solid components of the CAP, dicalcium phosphate anhydrous (DCPA). The DCPA was dissolved in the liquid phase and left at room temperature for 2 min with continuous mixing.
Next, tetracalcium phosphate (TTCP) was gradually added to the first dissolved CAP component to produce a paste. The powder to liquid ratio (P/L) of the final CAP was 2.0 (wt/wt).
The pastes were either implanted or used for the preparation of rods. Cement rods (1.9 mm diameter×2.3 mm height) were shaped by allowing aliquots of packed CPC pastes to set in custom made Teflon® formers for 24 h at 37C and 100% humidity and subsequently for 48 h at room temperature.
Young male Wistar rats with an average body weight of 125-150 g were purchased from Charles River (QC, Canada), housed in light- and temperature-controlled rooms, and fed a standard diet. The maintenance and use of animals were in accordance with the Canadian Council of Animal Care Guidelines.
Bone defects were drilled in the mid-diaphysis of the femur. The holes were made using a low speed dental drill (2.3 mm in diameter) with copious saline irrigation. Pre-hardened CPC rods were placed into the holes using gentle pressure. Every rat received two implants, a control rod (paste) in one femur and a rod (paste) containing Bafilomycin A1 in another femur. The animals were observed daily throughout the implantation period.
After desired time in vivo, the animals were sacrificed, and the femurs were removed. The femurs were then exposed to a fixative solution for 48 h, decalcified in a 1:1 mixture of 45% formic acid and 20% sodium citrate, dehydrated and embedded in low-melting-point paraffin. Serial sections (6 μm thick) perpendicular to the long axis of the implant were obtained using a hard tissue Spencer 820 microtome. Sample sections were stained with hematoxylin-eosin (H&E) and Mason's trichrome stains. Representative sections were also tested for the presence of tartrate resistant acid phosphatase (TRAP) enzyme, characteristic of osteoclasts, to determine the identity of the cells at the material/bone interface.

[3] = tested on: osteoclasts; assay: Bafilomycin-doped CAP implant rods in young and non-ovx aged Brown Norway rats (comparison groups), histology; design: species or system rat; conditions: young control group and non-ovx aged group; observed even at 4 months in vivo
From the text: Ten-month old ovariectomized (ovx) virgin Brown Norway rats with were purchased from the National Institute on Aging (Bethesda, Md., USA), housed individually in light- and temperature-controlled rooms, and fed a restricted diet (6 pellets/day). These animals were kept for additional four months following the ovariectomy. Non-ovx virgin Brown Norway rats of the same age as the experimental rats at the time of implantation (fourteen months) were used as a control group for the ovx animals. Young virgin female Brown Norway rats (three months old) were used as another comparison group to assess the implant integration and resorption. The maintenance and use of animals were in accordance with the Canadian Council of Animal Care Guidelines.
Production of the CAP implant doped with bafilomycin was performed as described above, i.e., resorbable CAP based on the TTCP and DCPA chemistry. Bafilomycin in concentration of 75-100 μg per 250 μL of liquid neutral phosphate phase per 500 mg of CAP was used.
The implants were allowed to set to form pre-hardened implant rods. The implants were retrieved at 10 days, 1 month, 2 months, and 4 months post-surgery.

[4] = tested on: osteoclasts; assay: Bafilomycin-doped CAP implant rods in ovariectomized aged rats (model of osteoporosis), histology; format: in vivo, rat; conditions: ovx aged Brown Norway rats, 75-100 μg per 500 mg CAP
Procedure: Performance of the bafilomycin-doped implant was also assessed in a model of osteoporosis which utilizes ovarectomized aged rats. Successful integration of osseous implants with host bone tissue can be adversely affected by pathological bone conditions such as osteoporosis, which result in osteopenia due to disturbance of the balance between bone resorption and bone formation processes. Therefore, systemic bone loss due to estrogen deficiency may also affect bone growth and maintenance around the implants. Although current attention has been focused in the art on systemic fracture prevention and development of new therapies aimed at conserving bone mass, little emphasis has been given to increasing osteointegration of implants in osteoporotic defect site.
The effects of ovariectomy on bone tissue formation and resorption of proton pump inhibitor (Bafilomycin A1)—modified resorbable CAP cement implants in comparison to the controls were studied.
Ten-month old ovariectomized (ovx) virgin Brown Norway rats with were purchased from the National Institute on Aging (Bethesda, Md., USA), housed individually in light- and temperature-controlled rooms, and fed a restricted diet (6 pellets/day). These animals were kept for additional four months following the ovariectomy. […]

[5] = tested on: osteoclast proton pump; assay: Calcibon cement rods doped with Panto IV implanted in femur of young Wistar rats, histology; format: in vivo, rat; conditions: 4 mg Panto IV per mL neutral phosphate solution per 500 mg Calcibon, 10 days
Procedure: Experiments with a commercially available proton pump inhibitor, sodium pantoprazole sold as Panto IV®, were performed in healthy young Wistar rats.
Although Panto IV is highly specific for the proton pumps of the parietal cells, it was hypothesized that it may non-specifically affect other proton pumps, including the osteoclast proton pump. A commercially available calcium phosphate material, Calcibon, was also used which is less resorbable than the previously used CAP to determine whether the strategy for stimulating local bone mass can be used with other materials.
The CAP material used was Calcibon provided by the Merck Biomaterials/Biomet company. The concentration used was 4 mg Panto IV per/mL of neutral phosphate solution per 500 mg of CAP powder used to prepare the cement. The cement doped with the PPI was then allowed to set, as described previously. The pre-set rods were implanted in young Wistar rats according to the same procedure as described previously.

| SMILES | solubility in DMSO [1] | control of CAP cement resorption (dose range study outcome) ([2]; 1.61×10^−4 M Bafilomycin A1 in liquid phase (DMSO solvent), rat femur implant) | amount of new bone surrounding the implant versus control cement ([2]; 1.61×10^−4 M, all specimens studied, young male Wistar rats) | resorption rate of CAP cement in comparison to controls ([2]; 1.61×10^−4 M, histology, young male Wistar rats) | formation of osteoclastic cutting cones into the material ([2]; 1.61×10^−4 M, tissue/material interface) | density of new bone surrounding the cement versus control ([2]; 1.61×10^−4 M, young male Wistar rats) | bone healing around the implant ([2]; highest concentration 2.0×10^−3 M Bafilomycin A1 in liquid phase (methanol solvent), rat femur implant) | response of CAP implanted as paste (resorption, new bone) ([2]; injectable paste, 14 days after implantation, rat femur) | histology / resorption of cement versus control ([2]; lowest concentration 1.61×10^−5 M Bafilomycin A1 in liquid phase (DMSO solvent), rat femur implant) | bone formation around the material doped with PPI (trend) [3] | resorption of the material doped with PPI (trend) [3] | resorption of implant in comparison to control material ([4]; throughout 4-month in vivo period) | local bone mass around implant ([4]; up to 4 months) | reparative bone mass surrounding the implant versus control [5] |
| --- | --- | --- | --- | --- | --- | --- | --- | --- | --- | --- | --- | --- | --- | --- |
| CO/C1=C\C(C)=C\[C@@H](C)[C@@H](O)[C@@H](C)C/C(C)=C/C=C/[C@H](OC)[C@@H]([C@@H](C)[C@@H](O)[C@H](C)[C@@]2(O)C[C@@H](O)[C@H](C)[C@@H](C(C)C)O2)OC1=O [Bafilomycin A1] | solubility of Bafilomycin A1 in DMSO was exceeded | found to work very well | consistently surrounded by more bone than the control cements | decreased the resorption rate | did not form “cutting cones” | appeared to be denser than the bone around the controls | the bone would not heal around the implant | showed the same response as that observed for the pre-set cements | did not differ in histology | increased bone formation | reduced resorption | reduction of the resorption | increased local bone mass | – |
| COc1ccnc(Cc2nc3cc(OC(F)F)ccc3[nH]2)c1OC [Panto IV, 5-difluoromethoxy-2-[(3,4-dimethoxy-2-pyridinyl)methyl]-1H-benzimidazole] | – | – | – | – | – | – | – | – | – | – | – | – | – | surrounded by higher reparative bone mass than the control |
